Test results taken from patent US12377037B2, “Cleavable comonomer strategy for accelerating removal of gel nail polish” (MASSACHUSETTS INSTITUTE OF TECHNOLOGY, priority 2022, dated 2025).

Tests used:
Type in all cases: physicochemical
[1] = Solubility study of DOT derivatives in nail polish (supersaturated solution, quantitative 1H NMR); conditions: for Solubility (wt % in polish): nail polish (clear topcoat), supersaturated solution filtered through 0.25 μm PTFE, quantitative 1H NMR; for Notes: solubility / appearance in nail polish solution: standard nail polish solution
Method: The solubility of various DOT derivatives in nail polish was observed by generating a supersaturated solution of the compounds in nail polish (clear topcoat). The supersaturated solution was filtered through a 0.25 μm PTFE syringe filter, and a known mass of an internal NMR standard (bis-1,4-trimethylsilylbenzene) was added. The amount of the compound that was dissolved in the nail polish was then determined by quantitative ^1H NMR. The solubility was taken as the amount of the weight fraction of the compound dissolved in nail polish in a supersaturated solution.

[2] = Disappearance of visible absorbance (yellowness) of polymer compositions under UV irradiation, image analysis in ImageJ; conditions: upon polymerization
Method: In some embodiments, the polymer composition is prepared by polymerizing the first, second, and third monomers. In certain embodiments, the third monomer is added subsequently to a mixture of at least the first and second monomers. When added to the polymer composition, the third monomer may contribute a visible absorbance that obscures the intended color of the polymer. […] In some embodiments, UV irradiation initiates the polymerization process. The disappearance of the visible absorbance can be measured by image analysis in ImageJ. […] As shown, the visible absorbance of polymer compositions with concentrations of 1, 2, and 5 wt % 2SiPr-DOT disappears after 20 minutes of UV irradiation. Compositions with lower concentrations show a disappearance of viable absorbance between about 5 and about 10 minutes of UV irradiation.

[3] = Bench stability noted for DOT derivatives

Solubility (wt % in polish) [1]	Colour contributed to the polymer (visible absorbance) [2]	Notes: bench stability [3]	SMILES	Solubility in nail polish, comparison in words ([1]; nail polish, versus DOT or 2S^sBu-DOT)	Notes: solubility / appearance in nail polish solution [1]
7.64 wt % in polish	does not contribute a permanent color	–	CC(C)Sc1ccc2c(c1)-c1ccccc1COC2=S [2S^iPr-DOT, 2-(isopropylthio)dibenzo[c,e]oxepine-5(7H)-thione]	superior solubility in nail polish over DOT or 2S^sBu-DOT	Yellow crystalline solid; shows superior solubility in standard nail polish solution
2.00 wt % in polish	–	not bench stable	CCC(C)Sc1ccc2c(c1)-c1ccccc1COC2=S (centres unmarked) [2S^sBu-DOT]	–	cloudy and inhomogeneous in nail polish solution
2.23 wt % in polish	–	–	S=C1OCc2ccccc2-c2ccccc21 [DOT, dibenzo[c,e]oxepine-5(7H)-thione, reference compound]	–	–
